Test results taken from patent US20020040005A1, “Composition and method of treating cancer” (priority 1995, published 2002).

What was measured:
HeLa cells = conditions: cited from earlier work; for cell growth: in vitro, dose dependently
Raji lymphoma cells = conditions: cited from earlier work; for cell growth: in vitro, dose dependently
Carcinoma of the Bladder = assay: Clinical experimental trials in Cuba, voluntary patients: carcinoma of the bladder; type: in vivo, human
Text: (§1) The following clinical data was collected on voluntary patients during clinical experimental trials in Cuba. A 10% concentration of tannic acid was used in all of the clinical studies set forth below.

Monoblastic Leukemia = assay: Clinical experimental trials in Cuba, voluntary patients: monoblastic leukemia; type: in vivo, human; conditions: Patient #17, no improvement with chemotherapy; maximum levels, one year
Text: as §1

[1] = tested on: Acute Lymphocytic Leukemia; assay: Clinical experimental trials in Cuba, voluntary patients: acute lymphocytic leukemia; type: in vivo, human; conditions: for time to relapse after completion of therapy: leukemia cells encysted in the testes
Text: as §1

Carcinoma of the uterus = assay: Clinical experimental trials in Cuba, voluntary patients: carcinoma of the uterus; type: in vivo, human; conditions: for clinical outcome: one year
Text: as §1

Multiple Myelomas = assay: Clinical experimental trials in Cuba, voluntary patients: multiple myelomas; type: in vivo, human
Text: as §1

Hodgkin's Lymphoma = assay: Clinical experimental trials in Cuba, voluntary patients: Hodgkin's lymphoma; type: in vivo, human; conditions: Patient #14, chemotherapy discontinued, considered terminal; one year
Text: as §1

[2] = tested on: epidermal PAH metabolism, PAH-induced skin tumorigenesis; conditions: applied topically to Sencar mice; cited from earlier work
Prostate Carcinoma = assay: Clinical experimental trials in Cuba, voluntary patients: prostate carcinoma; type: in vivo, human; conditions: 10% tannic acid
Text: as §1

[3] = tested on: Hypernephroma (Cancer of Kidney); assay: Clinical experimental trials in Cuba, voluntary patients: hypernephroma; type: in vivo, human
Text: as §1

[4] = tested on: Liposarcoma of the right thigh; assay: Clinical experimental trials in Cuba, voluntary patients: liposarcoma; type: in vivo, human; conditions: Patient #18, two unsuccessful operations; maximum levels, one year
Text: as §1

Breast carcinoma = assay: Clinical experimental trials in Cuba, voluntary patients: breast carcinoma; type: in vivo, human; conditions: for clinical outcome: terminal
Text: as §1

[5] = tested on: skin tumors promoted by TPA; conditions: two-step initiation-promotion protocol; cited from earlier work
Colon Carcinoma = assay: Clinical experimental trials in Cuba, voluntary patients: colon carcinoma; type: in vivo, human
Text: as §1

Carcinoma of penis = assay: Clinical experimental trials in Cuba, voluntary patients: carcinoma of penis; type: in vivo, human; conditions: Patient #11, metastasized, terminal; maximum levels after surgery, one year
Text: as §1

[6] = tested on: Cancerous Lesion of the Tongue; assay: Clinical experimental trials in Cuba, voluntary patients: cancerous lesion of the tongue; type: in vivo, human; conditions: Patient #10, conventional treatment ineffective; 3 months at stage 1 dosage
Text: as §1

[7] = tested on: 12-O-tetradecanoyl-phorbol-13-acetate (TPA) effects in mouse epidermis; conditions: applied topically to mouse skin; cited from earlier work

In the case of `O=C(O)c1cc(O)c(O)c(O)c1` [gallic acid, reference compound], the cell growth (HeLa cells; HeLa) is listed as “inhibited” and the cell growth (Raji lymphoma cells) is listed as “inhibited”.

With `O=C(OC[C@H]1O[C@@H](OC(=O)c2cc(O)c(O)c(OC(=O)c3cc(O)c(O)c(O)c3)c2)[C@H](OC(=O)c2cc(O)c(O)c(OC(=O)c3cc(O)c(O)c(O)c3)c2)[C@@H](OC(=O)c2cc(O)c(O)c(OC(=O)c3cc(O)c(O)c(O)c3)c2)[C@@H]1OC(=O)c1cc(O)c(O)c(OC(=O)c2cc(O)c(O)c(O)c2)c1)c1cc(O)c(O)c(OC(=O)c2cc(O)c(O)c(O)c2)c1` [tannic acid] the “carcinoma size by cystoscopic exam” value (Carcinoma of the Bladder; Patient #21, refused surgery, maximum dosage, first three month check-up) was “the carcinoma had diminished in size”, the clinical outcome (Carcinoma of the Bladder; Patient #21, at 10 months) was “declared cured of cancer” and the clinical outcome (Monoblastic Leukemia) was “They were cured of monoblastic Leukemia and has had no relapse”. The “outcome of first therapy period” value ([1]; Patient #8, terminal, one year at maximum dosage) was “Patient initially showed signs of being cured”, the “time to relapse after completion of therapy” value ([1]; Patient #8) was “two” and the “outcome of readministered therapy” value ([1]; Patient #8, year long treatment period after relapse) was “patient was cured”. For the same molecule, the “time to relapse after completion of therapy” value ([1]; Patient #12) was “about 2 years”, the “outcome of first therapy period” value ([1]; Patient #12, maximum level, one year) was “Patient initially showed signs of being cured” and the “outcome of readministered therapy” value ([1]; Patient #12, readministered for one year after relapse) was “Patient was cured and subsequent check-ups have been negative”. The overall bloodwork ([1]; Patient #13, no improvement with prior chemotherapy) was “immediately overall bloodwork returned to normal parameters”, the clinical outcome (Carcinoma of the uterus; Patient #5, metastatic growth throughout internal organs, terminal, maximum levels) was “They were cured of the cancer throughout their body” and the clinical outcome (Carcinoma of the uterus; Patient #7, refused further radiation, maximum dosage, no other treatments) was “Semi-annual checkups reveal no relapse”. For the same molecule, the “outcome of readministered therapy” value (Carcinoma of the uterus; Patient #15, carcinoma of the uterus discovered two years after first therapy, readministered one year) was “They were cured of uterine cancer”, the “X-rays at the end of the therapy” value (Multiple Myelomas; Patient #19, metastasis in hips and ribs, maximum levels, three month period, no other therapy) was “actual regeneration of skeletal tissue and structure” and the “time to death of Myeloma after stopping treatment” value (Multiple Myelomas; Patient #19, refused treatment after three months) was “four”. For the same molecule, the cell growth (HeLa cells; HeLa) was “inhibited”, the “potency relative to gallic acid” value (HeLa cells; HeLa) was “twice as potent as its monomer gallic acid” and the clinical outcome (Hodgkin's Lymphoma) was “they were cured of disease”. For the same molecule, the PAH-DNA adduct formation [2] was “substantial inhibition”, the PAH-induced skin tumorigenesis [2] was “substantial inhibition” and the “epidermal PAH metabolism” value [2] was “substantial inhibition”. The clinical outcome (Prostate Carcinoma; Patient #1, inoperative, maximum dosage, first treatment period three months) was “Cancer was cured”, the catheter removal (Prostate Carcinoma; Patient #1, two weeks after initiation of therapy) was “catheter was removed” and the skeletal finding ([3]; Patient #20, metastasis in lungs and ribs, terminal, maximum levels, after 20 days of therapy) was “regeneration of ribs had occurred”. For the same molecule, the functional status ([3]; Patient #20, after one month of therapy) was “the patient had returned to normal daily activities”, the survival after therapy ([3]; Patient #20, therapy discontinued at three months) was “two” and the clinical outcome [4] was “They were cured of cancer, and has had no relapse”. For the same molecule, the “clinical outcome (metastatic growth after surgery)” value (Breast carcinoma; Patient #2, after surgery on left breast, minimal 3 month period, 10% tannic acid) was “No additional cancerous growths were detected anywhere in their body”, the tumor size (Breast carcinoma; Patient #3, tumor 5 cms by 5 cms, no surgery, maximum levels, after first three month interval, 10% tannic acid) was “Tumor diminished in size after first three month interval to the point where it was very difficult to detect by manual examination” and the long-term outcome (Breast carcinoma; Patient #3, therapy continued for one year) was “Cancer never returned to this day”. For the same molecule, the clinical outcome (Breast carcinoma; Patient #6, metastasis in skeletal system, lungs and liver, maximum therapy, one year) was “they were cured of cancer in all organs”, the “clinical outcome at end of therapy” value (Breast carcinoma; Patient #15, left mammary gland removed, one year) was “no cancer was detected” and the clinical outcome (Breast carcinoma; Patient #16, metastasis in both lungs and lymph nodes, maximum levels, one and one half year) was “the Doctor declared patient cured”. For the same molecule, the “incidence and yield of skin tumors promoted by TPA” value [5] was “inhibited”, the “potency relative to gallic acid” value (Raji lymphoma cells) was “twice as potent as its monomer gallic acid” and the cell growth (Raji lymphoma cells) was “inhibited”. The regular checkups (Colon Carcinoma; Patient #4, maximum therapy along with chemotherapy) was “all have been negative”, the blood work (Colon Carcinoma; Patient #4, maximum therapy simultaneously with 72 chemotherapy dosages) was “normal” and the clinical outcome (Colon Carcinoma; Patient #9, tumor not removed, no chemotherapy or radiation, maximum level, one year) was “Tumor disappeared and has not returned”. For the same molecule, the clinical outcome (Carcinoma of penis) was “They have had no relapse and is cured of the cancer”, the clinical outcome [6] was “The lesion healed and the tissue of the tongue was restored to normal” and the “TPA-induced DNA synthesis” value [7] was “inhibited”. The TPA-induced hydroperoxide production [7] was “inhibited” and the “TPA-induced ornithine decarboxylase activity” value [7] was “inhibited”.

For `CC1=C(/C=C/C(C)=C/C=C/C(C)=C/CO)C(C)(C)CCC1` [Retinol, reference compound], the cell proliferation (HeLa cells; 100 microM, HeLa) is given as “inhibited cell proliferation completely” and the cell proliferation (Raji lymphoma cells; 100 microM) is given as “inhibited cell proliferation completely”.

For `O=C(/C=C/c1ccc(O)c(O)c1)c1ccc(O)cc1O` [Butein], the growth inhibition (HeLa cells; 10 microM, cell line not stated, more effective on HeLa cells) is given as 30%.

In the case of `O=c1oc2c(O)c(O)cc3c(=O)oc4c(O)c(O)cc1c4c23` [ellagic acid, reference compound], the “incidence and yield of skin tumors promoted by TPA” value [5] is listed as “inhibited”, the “TPA-induced DNA synthesis” value [7] is listed as “inhibited” and the TPA-induced hydroperoxide production [7] is listed as “inhibited”. The “TPA-induced ornithine decarboxylase activity” value [7] was “inhibited”.
